In US20260069588A1, “VEPDEGESTRANT FOR USE IN TREATING CANCER” (Arvinas Operation, Inc., priority 2022, published 2026):
Like-named read-outs stand apart in the source and are kept apart here. Marks after values point to notes of the source that are not given here. Each block holds one compound with its values, some of them ahead of it.

What was measured:
[1] = Phase 2 study of Compound A or anastrozole in early ER+/HER2− breast cancer: adverse events; conditions: TEAE, Treatment Related per title; Compound A 200 mg N = 23, Anastrozole 1 mg N = 13
hERG channel = hERG channel (Homo sapiens, UniProt Q12809); test: hERG channel inhibition; format: biochemical
Description: The pivotal nonclinical safety studies were conducted in the US in accordance with GLP regulations per the US 21 CFR Part 58. These include the cardiovascular safety pharmacology study in dogs, the pivotal 28-day and 3-month repeat-dose toxicology studies in rats and dogs, and an in vitro phototoxicity assay. The bacterial reverse mutation assay, in vitro micronucleus assay, and 2 in vitro hERG studies were conducted in the UK in accordance with the UK Good Laboratory Practice Monitoring Authority, MHRA: Good Laboratory Practice Regulations 1999, Statutory Instrument 1999 No. 3106 as amended by the Good Laboratory Practice (Codification Amendments Etc.) Regulations, 2004, Statutory Instrument 2004, No. 994; and the OECD GLP and OECD Principles on Good Laboratory Practice ENV/MC/CHEM (98) 17 (Revised in 1997, Issued January 1998).accordance with the OECD Principles of Good Laboratory Practice and as accepted by Regulatory Authorities throughout the European Union, United States of America (FDA), Japan (MHLW), and other countries that are signatories to the OECD Mutual Acceptance of Data Agreement.

[2] = Interconversion (epimerization) Compound A/Compound B in animals; format: in vivo, mouse, rat, dog, and monkey
[3] = human, in vivo
clinical = conditions: human, in vivo
ER = target: T1, ER (Homo sapiens, UniProt P03372); test: ER degradation in ER+ cell lines (MCF7); format: cell-based; set-up: endogenous in cells; host or cells: MCF7 (and a panel of unnamed ER+ cell lines)
T1 sequence (P03372 1-595): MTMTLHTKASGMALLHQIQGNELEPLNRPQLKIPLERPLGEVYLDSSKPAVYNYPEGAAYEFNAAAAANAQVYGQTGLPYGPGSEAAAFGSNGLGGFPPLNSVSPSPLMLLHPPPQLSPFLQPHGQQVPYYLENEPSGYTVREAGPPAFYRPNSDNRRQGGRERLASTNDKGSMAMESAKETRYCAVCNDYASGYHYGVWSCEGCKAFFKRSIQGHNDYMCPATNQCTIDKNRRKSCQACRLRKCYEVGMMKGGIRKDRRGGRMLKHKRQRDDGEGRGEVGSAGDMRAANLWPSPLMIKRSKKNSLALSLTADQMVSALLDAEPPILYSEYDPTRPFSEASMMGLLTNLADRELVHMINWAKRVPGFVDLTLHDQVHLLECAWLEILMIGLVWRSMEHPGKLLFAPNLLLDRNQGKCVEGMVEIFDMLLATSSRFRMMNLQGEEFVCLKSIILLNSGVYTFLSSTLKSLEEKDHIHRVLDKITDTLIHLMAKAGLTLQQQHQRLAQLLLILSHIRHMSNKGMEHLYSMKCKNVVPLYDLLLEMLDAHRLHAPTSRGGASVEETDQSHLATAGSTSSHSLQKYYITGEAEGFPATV

MCF7 cells = test: Live-cell imaging proliferation, MCF7; format: cell-based; conditions: Homo sapiens, 144 h; MCF7, up to 6 days
Text: (§1) Full growth of the cells over this time period is shown by extent of cell confluence with dimethyl sulfoxide (DMSO).

T47D cells = test: Live-cell imaging proliferation, T47D; format: cell-based; conditions: Homo sapiens, 144 h, up to 6 days
Text: as §1

Sequence of hERG channel (Q12809 whole entry): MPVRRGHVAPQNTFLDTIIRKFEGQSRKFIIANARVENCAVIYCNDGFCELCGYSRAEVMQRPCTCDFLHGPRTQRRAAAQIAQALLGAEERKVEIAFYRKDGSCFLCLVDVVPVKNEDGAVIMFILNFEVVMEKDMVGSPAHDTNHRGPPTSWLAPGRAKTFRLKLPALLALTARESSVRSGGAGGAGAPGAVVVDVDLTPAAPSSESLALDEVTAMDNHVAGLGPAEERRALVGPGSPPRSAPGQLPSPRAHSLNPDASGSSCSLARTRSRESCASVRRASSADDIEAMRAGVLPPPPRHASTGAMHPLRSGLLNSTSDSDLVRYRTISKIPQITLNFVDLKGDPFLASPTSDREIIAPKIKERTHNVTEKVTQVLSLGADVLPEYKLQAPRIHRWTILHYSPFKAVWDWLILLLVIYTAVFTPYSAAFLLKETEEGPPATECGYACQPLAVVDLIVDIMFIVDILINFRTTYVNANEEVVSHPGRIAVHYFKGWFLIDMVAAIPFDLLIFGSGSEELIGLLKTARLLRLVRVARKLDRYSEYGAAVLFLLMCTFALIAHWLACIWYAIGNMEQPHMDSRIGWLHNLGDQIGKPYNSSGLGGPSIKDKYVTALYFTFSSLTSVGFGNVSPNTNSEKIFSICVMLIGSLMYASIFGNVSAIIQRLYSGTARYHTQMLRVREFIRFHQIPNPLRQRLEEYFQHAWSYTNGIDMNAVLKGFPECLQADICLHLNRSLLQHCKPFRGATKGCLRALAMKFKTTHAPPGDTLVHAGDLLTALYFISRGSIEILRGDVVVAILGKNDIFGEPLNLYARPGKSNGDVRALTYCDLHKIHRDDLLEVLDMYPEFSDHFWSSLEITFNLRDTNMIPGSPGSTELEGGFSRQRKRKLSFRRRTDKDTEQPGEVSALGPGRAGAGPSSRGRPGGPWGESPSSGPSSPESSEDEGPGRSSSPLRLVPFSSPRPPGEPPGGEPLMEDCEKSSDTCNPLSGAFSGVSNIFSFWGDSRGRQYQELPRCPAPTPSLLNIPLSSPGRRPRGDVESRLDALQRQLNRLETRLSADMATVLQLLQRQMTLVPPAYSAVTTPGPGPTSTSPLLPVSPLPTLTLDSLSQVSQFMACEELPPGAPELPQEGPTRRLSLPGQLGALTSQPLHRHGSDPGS

SMILES: CC(C)(C#N)c1cc(Cn2cncn2)cc(C(C)(C)C#N)c1 [Anastrozole]
Anemia [1]: 1 (7.7) n (%)
Arthralgia [1]: 1 (7.7) n (%)
Asphyxia [1]: 0 n (%)
Asthenia [1]: 0 n (%)
Blood and lymphatic system disorders [1]: 1 (7.7) n (%)
Blood uric acid increased [1]: 0 n (%)
Breast pain [1]: 0 n (%)
Cardiac disorders [1]: 0 n (%)
Constipation [1]: 1 (7.7) n (%)
Diarrhea [1]: 0 n (%)
Dyspepsia [1]: 1 (7.7) n (%)
Fatigue [1]: 0 n (%)
Gastrointestinal disorders [1]: 1 (7.7) n (%)
General disorders and administration site conditions [1]: 0 n (%)
Hematocrit decreased [1]: 1 (7.7) n (%)
Heparin-induced thrombocytopenia [1]: 0 n (%)
Hepatobiliary disorders [1]: 0 n (%)
Hot flush [1]: 0 n (%)
Hyperbilirubinemia [1]: 0 n (%)
Hypercalcemia [1]: 0 n (%)
Hyperglycemia [1]: 0 n (%)
Hypernatremia [1]: 0 n (%)
Hypertransaminasemia [1]: 0 n (%)
Hypokalemia [1]: 0 n (%)
Hyponatremia [1]: 0 n (%)
Injury, poisoning and procedural complications [1]: 0 n (%)
Insomnia [1]: 0 n (%)
Investigations [1]: 1 (7.7) n (%)
Lymphopenia [1]: 1 (7.7) n (%)
Metabolism and nutrition disorders [1]: 0 n (%)
Musculoskeletal and connective tissue disorders [1]: 1 (7.7) n (%)
Myalgia [1]: 1 (7.7) n (%)
Nervous system disorders [1]: 0 n (%)
Odynophagia [1]: 0 n (%)
Procedural pain [1]: 0 n (%)
Pruritus [1]: 0 n (%)
Psychiatric disorders [1]: 0 n (%)
Pyrexia [1]: 0 n (%)
Reproductive system and breast disorders [1]: 0 n (%)
Respiratory, thoracic and mediastinal disorders [1]: 0 n (%)
Sinus bradycardia [1]: 0 n (%)
Skin and subcutaneous tissue disorders [1]: 0 n (%)
Somnolence [1]: 0 n (%)
Stomatitis [1]: 0 n (%)
Tension [1]: 0 n (%)
Vascular disorders [1]: 0 n (%)
With Any Adverse Event [1]: 2 (15.4) n (%)

extent of epimerization ([2]; monkey): negligible
exposure of Compound B compared to Compound A ([2]; preclinical data): < 26%
Rac (AUCtau) ([3]; 30 mg): 7.1
Tmax ([3]; 30 mg): 6.0 h
Rac (AUCtau) ([3]; 60 mg): 7.3
Rac (AUCtau) ([3]; 100 mg): 6.1 ^f
Tmax ([3]; 100 mg): 6.0 h
Rac (AUCtau) ([3]; 120 mg): 5.7
Tmax ([3]; 120 mg): 6.0 h
Rac (AUCtau) ([3]; 180 mg): 6.8
Tmax ([3]; 180 mg): 5.9 h
Rac (AUCtau) ([3]; 200 mg): 5.1
Tmax ([3]; 200 mg): 5.9 h
MR AUCtau ([3]; 250 mg): 0.36
Tmax ([3]; 250 mg): 4.1 h
Rac (AUCtau) ([3]; 360 mg): 5.9
Tmax ([3]; 360 mg): 6.0 h
Rac (AUCtau) ([3]; 500 mg): 5.9
Tmax ([3]; 500 mg): 6.0 h
Rac (AUCtau) ([3]; 700 mg): 3.7 ^g
Tmax ([3]; 700 mg): 7.8 ^g h
half-life (clinical; 30 mg): 4.33 days
Tmax (clinical; 30 mg): 8 h
half-life (clinical; 60 mg): 4.58 days
half-life (clinical; 100 mg): 4.12 days
Tmax (clinical; 100 mg): 7.8 h
half-life (clinical; 120 mg): 3.88 days
Tmax (clinical; 120 mg): 7.8 h
half-life (clinical; 180 mg): 3.83 days
Tmax (clinical; 180 mg): 7.8 h
half-life (clinical; 200 mg): 3.54 days
Tmax (clinical; 200 mg): 7.8 h
AUC(0-t) (clinical; 250 mg, AUCtau (AUC0-8)): 179 ng·h/mL
AUC(0-t) (clinical; 250 mg, AUCtau (AUC0-12)): 7390 ng·h/mL
Tmax (clinical; 250 mg): 7.8 h
half-life (clinical; 360 mg): 4 days
Tmax (clinical; 360 mg): 7.8 h
half-life (clinical; 500 mg): 4 days
Tmax (clinical; 500 mg): 7.8 h
half-life (clinical; 700 mg): 2.17 days
Tmax (clinical; 700 mg): 7.8 h
Tmax (clinical): 7.8 h
ER degradation (ER): does not degrade the ER
SMILES: O=C1CC[C@@H](N2Cc3cc(N4CCN(CC5CCN(c6ccc([C@@H]7c8ccc(O)cc8CC[C@@H]7c7ccccc7)cc6)CC5)CC4)ccc3C2=O)C(=O)N1 [Compound B]
IC50 (hERG channel): > 20 µM
unbound Cmax margin to hERG IC50 (hERG channel; recommended Phase 3 dose of 200 mg): ~499 ×

GI50 (MCF7 cells): 0.4 nM
GI50 (T47D cells): 0.8 nM
SMILES: C[C@]12CC[C@@H]3c4ccc(O)cc4C[C@@H](CCCCCCCCC[S+]([O-])CCCC(F)(F)C(F)(F)F)[C@H]3[C@@H]1CC[C@@H]2O (stereo partly shown) [fulvestrant, reference compound]
